According to ChEMBL document CHEMBL1201862, “PubChem BioAssay data set” (2004):
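Grown in 96-well plates, cells were treated for 48 hours with each compound at five concentrations. Insufficient inhibition: endpoint recorded as highest concentration tested. At the GI50, growth is halved.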 Calls of active or inactive are those of the source. No stated cut-off is given here; in the data, active = GI50 up to about 1.1 µM and inactive = higher.

Experiments:
Experiment in all cases: NCI anticancer screen, dose series, 48 h
HCT-15 = tested on: HCT-15
Malme-3M = tested on: Malme-3M
ACHN = tested on: ACHN
LXFL 529 = tested on: LXFL 529
SR = tested on: SR
K562 = tested on: K562
SK-MEL-28 = tested on: SK-MEL-28
786-0 = tested on: 786-0
HOP-92 = tested on: HOP-92
NCI-H23 = tested on: NCI-H23
OVCAR-4 = tested on: OVCAR-4
SF-295 = tested on: SF-295
SNB-75 = tested on: SNB-75
A549 = tested on: A549
RPMI-8226 = tested on: RPMI-8226
SNB-19 = tested on: SNB-19
SK-MEL-5 = tested on: SK-MEL-5

Row | Compound | GI50 (HCT-15) | GI50 (Malme-3M) | GI50 (ACHN) | GI50 (LXFL 529) | GI50 (SR) | GI50 (K562) | GI50 (SK-MEL-28) | GI50 (786-0) | GI50 (HOP-92) | GI50 (NCI-H23) | GI50 (OVCAR-4) | GI50 (SF-295) | GI50 (SNB-75) | GI50 (A549) | GI50 (RPMI-8226) | GI50 (SNB-19) | GI50 (SK-MEL-5)
1 | O=C(CCC(=O)Nc1ccc(Cl)cc1)CC(=O)c1ccc(F)cc1 | > 100 µM | > 100 µM (inactive) | > 100 µM (inactive) | > 100 µM (inactive) | > 100 µM (inactive) | > 100 µM (inactive) | > 100 µM (inactive) | > 100 µM (inactive) | > 100 µM (inactive) | > 100 µM (inactive) | > 100 µM (inactive) | > 100 µM (inactive) | > 100 µM (inactive) | > 100 µM (inactive) | > 100 µM (inactive) | > 100 µM (inactive) | 
2 | CCOC(=O)C1=C(OC(OCC)C(CC)[Se]c2ccccc2)CCC1 (configuration not stated) | 14.7 µM | 4.58 µM (inactive) | 32.2 µM (inactive) | 18.7 µM (inactive) | 19.3 µM (inactive) | 44 µM (inactive) | 32.3 µM (inactive) | 15.5 µM (inactive) | 19.3 µM (inactive) | 12.5 µM (inactive) | 13.2 µM (inactive) | 16.9 µM (inactive) | 25.3 µM (inactive) | 77.4 µM (inactive) | 19.3 µM (inactive) | 42.2 µM (inactive) | 12.6 µM (inactive)
3 | N#Cc1c(-c2ccccc2)cc(-c2ccc(N)cc2)[nH]c1=O | > 100 µM | > 100 µM (inactive) | > 100 µM (inactive) | > 100 µM (inactive) | > 100 µM (inactive) | > 100 µM (inactive) | > 100 µM (inactive) | > 100 µM (inactive) | > 100 µM (inactive) | > 100 µM (inactive) | > 100 µM (inactive) | > 100 µM (inactive) | 25.2 µM (inactive) | > 100 µM (inactive) | > 100 µM (inactive) | > 100 µM (inactive) | > 100 µM (inactive)
4 | CCN1CCN(c2ccc(Nc3ccnc4ccc5nn(C)nc5c34)cc2)CC1 | 13.8 µM | 16.9 µM (inactive) | 10.6 µM (inactive) | 10.7 µM (inactive) | 4.22 µM (inactive) | 5.12 µM (inactive) | 16.6 µM (inactive) | 10.4 µM (inactive) | 11.9 µM (inactive) | 15.4 µM (inactive) | 11.9 µM (inactive) | 12.4 µM (inactive) | 13.2 µM (inactive) | 13.8 µM (inactive) | 7.08 µM (inactive) | 18.7 µM (inactive) | 15.2 µM (inactive)
5 | CN1OC(CO)CC12C1CC3CC(C1)CC2C3 (configuration not stated) | > 100 µM | > 100 µM (inactive) | > 100 µM (inactive) | > 100 µM (inactive) | > 100 µM (inactive) | > 100 µM (inactive) | > 100 µM (inactive) | > 100 µM (inactive) | > 100 µM (inactive) | > 100 µM (inactive) | > 100 µM (inactive) | > 100 µM (inactive) | > 100 µM (inactive) | > 100 µM (inactive) | > 100 µM (inactive) | > 100 µM (inactive) | > 100 µM (inactive)
6 | C/C(=N\NC(=S)NC(CCC(=O)O)C(=O)O)c1cnccn1 (configuration not stated) | > 100 µM | > 100 µM (inactive) | > 100 µM (inactive) | > 100 µM (inactive) | > 100 µM (inactive) | > 100 µM (inactive) | > 100 µM (inactive) | > 100 µM (inactive) | > 100 µM (inactive) | > 100 µM (inactive) | > 100 µM (inactive) | > 100 µM (inactive) | > 100 µM (inactive) | > 100 µM (inactive) | > 100 µM (inactive) | > 100 µM (inactive) | > 100 µM (inactive)
7 | CCOC(=O)NC(=O)c1cn(C2OC(COC(=O)CCCCCCCCC(=O)OCC3OC(n4cc(C(=O)NC(=O)OCC)c(=O)[nH]c4=O)C(O)C3O)C(O)C2O)c(=O)[nH]c1=O (configuration not stated) | > 100 µM | > 100 µM (inactive) | > 100 µM (inactive) | > 100 µM (inactive) | > 100 µM (inactive) | > 100 µM (inactive) | > 100 µM (inactive) | > 100 µM (inactive) |  | > 100 µM (inactive) | > 100 µM (inactive) | > 100 µM (inactive) | > 100 µM (inactive) | > 100 µM (inactive) | > 100 µM (inactive) | > 100 µM (inactive) | > 100 µM (inactive)
8 | N#Cc1ccc(C(C2C(=O)NC(=O)NC2=O)C2C(=O)NC(=O)NC2=O)cc1 | > 100 µM | > 100 µM (inactive) | > 100 µM (inactive) | > 100 µM (inactive) | > 100 µM (inactive) | 77.1 µM (inactive) | > 100 µM (inactive) | > 100 µM (inactive) | > 100 µM (inactive) | > 100 µM (inactive) | > 100 µM (inactive) | > 100 µM (inactive) |  | > 100 µM (inactive) | > 100 µM (inactive) | > 100 µM (inactive) | > 100 µM (inactive)
9 | Cc1ccc(S(=O)(=O)N/N=C(\CCN2CCCC2)CC(c2ccccc2)c2c(O)c3ccccc3oc2=O)cc1 (configuration not stated) | > 100 µM | > 100 µM (inactive) | > 100 µM (inactive) | > 100 µM (inactive) | > 100 µM (inactive) | 88.9 µM (inactive) |  | > 100 µM (inactive) | 72.3 µM (inactive) | > 100 µM (inactive) | > 100 µM (inactive) | > 100 µM (inactive) | > 100 µM (inactive) | > 100 µM (inactive) | > 100 µM (inactive) | > 100 µM (inactive) | > 100 µM (inactive)
10 | CC(C)(C)C1=Cc2cc3cc(C(C)(C)C)[nH]c(=O)c3cc2S(=O)(=O)N1 |  | 22.4 µM (inactive) | 30.3 µM (inactive) | 25.2 µM (inactive) | 23.7 µM (inactive) | 45.4 µM (inactive) | 31.3 µM (inactive) | 26.2 µM (inactive) | 16.7 µM (inactive) | 29.9 µM (inactive) | 24.6 µM (inactive) | 28.5 µM (inactive) | 37.8 µM (inactive) | 23.2 µM (inactive) | 30.3 µM (inactive) | 36.4 µM (inactive) | 
11 | CCOC(=O)/C(C(=O)c1ccccc1)=C1\N[C@H](C(=O)OCC)CS1 | > 100 µM | > 100 µM (inactive) | > 100 µM (inactive) | > 100 µM (inactive) | > 100 µM (inactive) | > 100 µM (inactive) | > 100 µM (inactive) | 10 µM (inactive) |  | > 100 µM (inactive) | > 100 µM (inactive) | > 100 µM (inactive) | > 100 µM (inactive) | > 100 µM (inactive) | > 100 µM (inactive) | > 100 µM (inactive) | 92.3 µM (inactive)
12 | COC1OC(OC)C2C(c3c(C)cc(C)cc3C)=NOC12 (configuration not stated) | > 100 µM | > 100 µM (inactive) | > 100 µM (inactive) | > 100 µM (inactive) | > 100 µM (inactive) | > 100 µM (inactive) | > 100 µM (inactive) | > 100 µM (inactive) | > 100 µM (inactive) | > 100 µM (inactive) | > 100 µM (inactive) | > 100 µM (inactive) | > 100 µM (inactive) | > 100 µM (inactive) | > 100 µM (inactive) | > 100 µM (inactive) | > 100 µM (inactive)
